Consider one compound from US20090030037A1, “Sustained Release Formulation and Dosing Schedules of Leukotriene Synthesis Inhibitor for Human Therapy” (deCODE Genetics ehf., priority 2005, published 2009).

The subject of this experiment is LTB4. Put plainly: Study DG-031-204: ionomycin-stimulated LTB4 in whole blood. It is filed as in vivo, human. Particulars: for Stimulated LTB4 (% change from baseline, whole blood, WBC corrected, 15 minute): after 4 weeks. As to the method:
Briefly, the cell pellets from the Ficoll gradient were harvested and the red blood cells were subsequently lysed in 0.165 M NH4CL for 10 minutes on ice. After washing with PBS, neutrophils were counted and plated at 2×10^6 cells/ml in 4 ml cultures of 15% Fetal calf serum (FCS) (GIBCO BRL) in RPMI-1640 (GIBCO BRL). The cells were then stimulated with maximum effective concentration of ionomycin (1 μM). At 0, 15, 30, 60 minutes post ionomycin addition 600 μl of culture medium was aspirated and stored at −80° C. for the measurement of LTB4 release as described below. The cells were maintained at 37° C. in a humidified atmosphere of 5% CO2/95% air. All samples were treated with indomethasine (1 μM) to block the cyclooxygenase enzyme. The experimental conditions are described above.
LTB4 Immunoassay Assay Design was used to quantitate LTB4 concentration in supernatant from cultured ionomycin stimulated neutrophils. The assay used is based on the competitive binding technique in which LTB4 present in the testing samples (200 μl) competes with a fixed amount of alkaline phosphatase-labelled LTB4 for sites on a rabbit polyclonal antibody. During the incubation, the polyclonal Ab becomes bound to a goat anti-rabbit Ab coated onto the microplates. Following a wash to remove excess conjugate and unbound sample, a substrate solution is added to the wells to determine the bound enzyme activity. The color development is stopped and the absorbance is read at 405 nm. The intensity of the color is inversely proportional to the concentration of LTB4 in the sample. Each LTB4 measurement using the LTB4 Immunoassay, was done in duplicate. […]
The biomarkers were analyzed as described in Example 1. […]
Serum was collected weekly for determination of LTB4 concentration in response to the treatment with DG-031. […] Stimulated LTB4 effects measured in study DG-031-204, as shown in the raw data set out in Table 12, appear consistent with projections from the exposure-response analysis based on data from studies DG-031-201 and DG-031-203. […]

For `O=C(O)[C@@H](c1ccc(OCc2ccc3ccccc3n2)cc1)C1CCCC1` [DG-031, (R)-(+)-alpha-cyclopentyl-4-(2-quinolinylmethoxy)-Benzeneacetic acid], the “Reduction of LTB4 levels, ionophore-stimulation assay” value (500 mg BID) is 35%. Moreover, the “Stimulated LTB4 (% change from baseline, whole blood, WBC corrected, 15 minute)” value is −44% (1000 mg (500 mg BID)) and −28% (1500 mg (500 mg TID)).
